Data: US12600731B2, “Isoxazolo[5,4-H]quinazoline compounds as protein kinase inhibitors” (CHENGDU CYNOGEN BIO-PHARMACEUTICAL TECHNOLOGY CO., LTD., priority 2019, dated 2026)
Structures can show the parent of a compound that is named as a salt.

How the values were obtained:
Assay type in all cases: biochemical
CDK4/cyclin D3 = CDK4/cyclin D3 (Homo sapiens, UniProt P11802); assay: Kinase activity assay, Caliper Mobility Shift Assay, CDK4/cyclin D3; conditions: 10 nM kinase, ATP 250 μM, 150 minutes at room temperature
Experimental: (§1) The inhibitory effect of compounds against the kinase CDK4/cyclin D3 was detected by Caliper Mobility Shift Assay method. The final concentration of the compounds to be tested was set at 10 concentrations starting from 1 μM by 3-fold serial dilution. 5 μL of compounds at 5-fold final concentration and 10 μL of CDK4/cyclin D3 kinase solution at a final concentration of 10 nM was added to a 384-well reaction plate, respectively. The plate was pre-incubated for 10 min at room temperature (with negative control wells containing 10 μL of kinase buffer and 5 μL of 5% DMSO; positive control wells containing 10 μL of kinase solution and 5 μL of 5% DMSO). The reaction was initiated by adding 10 μL of ATP at a final concentration of 250 μM and the corresponding substrate peptide mixture at room temperature for 150 minutes. 30 μL of stop detection solution containing EDTA was added to stop the kinase reaction. Caliper EZ Reader was used to read the conversion rate. Inhibition rate %=(average conversion rate of positive control %−conversion rate of sample %)/(average conversion rate of positive control %−average conversion rate of negative control %). wherein: negative control wells represent the conversion rate readings of wells without enzymatic activity; positive control wells represent conversion readings for wells with no compound inhibition. The log(inhibitor) vs. response—Variable slope of the analysis software GraphPad Prism 5 was used with log concentration value as the X-axis and the percent inhibition rate as the Y-axis to fit the dose-response curve, the IC50 value of each compound on the enzyme activity was thus obtained. Calculation formula: Y=Bottom+(Top−Bottom)/(1+10^((Log IC50−X)*HillSlope)).

CDK6/Cyclin D3 = CDK6/Cyclin D3 (Homo sapiens, UniProt Q00534); assay: Kinase activity assay, CDK6/Cyclin D3 (tested in a similar manner); conditions: tested in a similar manner to CDK4/cyclin D3
Experimental: as §1
(§2) The IC50 values for CDK6/Cyclin D3 and CDK2/Cyclin A2 of compounds of the present disclosure were tested in a similar manner.

CDK2/Cyclin A2 = CDK2/Cyclin A2 (Homo sapiens, UniProt P24941); assay: Kinase activity assay, CDK2/Cyclin A2 (tested in a similar manner); conditions: tested in a similar manner to CDK4/cyclin D3
Experimental: as §1, §2

CDK4/cyclin D3, sequence (P11802 whole entry, species assumed): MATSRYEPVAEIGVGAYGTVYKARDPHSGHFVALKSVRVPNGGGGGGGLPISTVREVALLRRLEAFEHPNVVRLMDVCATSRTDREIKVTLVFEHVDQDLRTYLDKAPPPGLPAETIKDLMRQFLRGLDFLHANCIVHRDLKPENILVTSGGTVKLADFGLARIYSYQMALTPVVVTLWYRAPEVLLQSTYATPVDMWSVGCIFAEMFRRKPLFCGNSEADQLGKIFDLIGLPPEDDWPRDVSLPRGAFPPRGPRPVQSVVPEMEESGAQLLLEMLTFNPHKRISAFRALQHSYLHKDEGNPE
CDK4/cyclin D3, sequence (P30281 whole entry partner, species assumed): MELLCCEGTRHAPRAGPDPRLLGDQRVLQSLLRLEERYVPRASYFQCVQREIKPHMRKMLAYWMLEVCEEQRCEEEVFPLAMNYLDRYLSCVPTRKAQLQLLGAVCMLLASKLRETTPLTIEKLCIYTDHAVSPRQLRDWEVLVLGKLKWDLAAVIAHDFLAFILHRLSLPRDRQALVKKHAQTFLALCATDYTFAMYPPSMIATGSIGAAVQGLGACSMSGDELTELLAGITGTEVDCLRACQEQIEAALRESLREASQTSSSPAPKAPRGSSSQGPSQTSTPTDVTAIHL
CDK6/Cyclin D3, sequence (Q00534 whole entry, species assumed): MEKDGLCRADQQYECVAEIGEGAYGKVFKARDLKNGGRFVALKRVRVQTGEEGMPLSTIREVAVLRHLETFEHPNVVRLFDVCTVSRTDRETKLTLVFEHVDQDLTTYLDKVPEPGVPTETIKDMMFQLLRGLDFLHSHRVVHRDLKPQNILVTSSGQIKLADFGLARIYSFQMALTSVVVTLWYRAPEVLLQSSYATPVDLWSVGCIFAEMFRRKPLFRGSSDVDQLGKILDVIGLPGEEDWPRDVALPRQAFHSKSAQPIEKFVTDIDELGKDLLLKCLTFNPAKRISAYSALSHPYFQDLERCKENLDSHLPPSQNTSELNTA
CDK6/Cyclin D3, sequence (P30281 whole entry partner, species assumed): as the sequence (P30281 whole entry partner, species assumed) above

| IC50 (CDK4/cyclin D3) [nM] | IC50 (CDK6/Cyclin D3) [nM] | IC50 (CDK2/Cyclin A2) [nM] | SMILES |
| --- | --- | --- | --- |
| 2 | 7 |  | CC(C)c1noc2ccc3cnc(Nc4ccc(N5CCNCC5)cn4)nc3c12 [Compound I-1, 9-isopropyl-N-(5-(piperazin-1-yl)pyridin-2-yl)isoxazolo[5,4-H]quinazolin-2-amine hydrochloride] |
| 6 | 23 |  | Cc1cc(Nc2ncc3ccc4onc(C(C)C)c4c3n2)ncc1N1CCNCC1 [Compound I-2, 9-isopropyl-N-(4-methyl-5-(piperazin-1-yl)pyridin-2-yl)isoxazolo[5,4-H] quinazolin-2-amine] |
| 8 | 36 |  | Cc1nc(Nc2ncc3ccc4onc(C(C)C)c4c3n2)ccc1N1CCNCC1 [Compound I-3, 9-isopropyl-N-(6-methyl-5-(piperazin-1-yl)pyridin-2-yl)isoxazolo[5,4-H] quinazolin-2-amine] |
| 1 | 4 |  | CC(C)c1noc2ccc3cnc(Nc4ccc(N5CCN(C)CC5)cn4)nc3c12 [Compound I-4, 9-isopropyl-N-(5-(4-methylpiperazin-1-yl)pyridin-2-yl)isoxazolo [5,4-H]quinazolin-2-amine] |
| 1 | 4 |  | CCN1CCN(c2ccc(Nc3ncc4ccc5onc(C(C)C)c5c4n3)nc2)CC1 [Compound I-5, N-(5-(4-ethylpiperazin-1-yl)pyridin-2-yl)-9-isopropylisoxazolo [5,4-H]quinazolin-2-amine] |
| 82 | 377 |  | CCN1CCN(c2cnc(Nc3ncc4ccc5onc(C(C)C)c5c4n3)cc2C)CC1 [Compound I-6, N-(5-(4-ethylpiperazin-1-yl)-4-methylpyridin-2-yl)-9-isopropylisoxazolo[5,4-H] quinazolin-2-amine] |
| 36 | 176 |  | CCN1CCN(c2ccc(Nc3ncc4ccc5onc(C(C)C)c5c4n3)nc2C)CC1 [Compound I-7, N-(5-(4-ethylpiperazin-1-yl)-6-methylpyridin-2-yl)-9-isopropylisoxazolo [5,4-H]quinazolin-2-amine] |
| 5 | 15 |  | CC(C)c1noc2ccc3cnc(Nc4ccc(N5CCOCC5)cn4)nc3c12 [Compound I-8, 9-isopropyl-N-(5-morpholinopyridin-2-yl)isoxazolo[5,4-H] quinazolin-2-amine] |
| 4 | 14 |  | CC(C)c1noc2ccc3cnc(Nc4ccc(N5CCN(C(C)C)CC5)cn4)nc3c12 [Compound I-9, 9-isopropyl-N-(5-(4-isopropylpiperazin-1-yl)pyridin-2-yl)isoxazolo [5,4-H]quinazolin-2-amine] |
| 21 | 67 |  | CC(C)c1noc2ccc3cnc(Nc4ccc(N5CCN(C6CC6)CC5)cn4)nc3c12 [Compound I-10, N-(5-(4-eyelopropylpiperazin-1-yl)pyridin-2-yl)-9-isopropylisoxazolo[5,4-H] quinazolin-2-amine] |
| 8 | 24 |  | CC(C)CN1CCN(c2ccc(Nc3ncc4ccc5onc(C(C)C)c5c4n3)nc2)CC1 [Compound I-11, N-(5-(4-isobutylpiperazin-1-yl)pyridin-2-yl)-9-isopropylisoxazolo[5,4-H] quinazolin-2-amine] |
| 9 | 40 |  | CCN1CCN(Cc2ccc(Nc3ncc4ccc5onc(C(C)C)c5c4n3)nc2)CC1 [Compound I-12, N-(5-((4-ethylpiperazin-1-yl)methyl)pyridin-2-yl)-9-isopropylisoxazolo[5,4-H] quinazolin-2-amine] |
| 4 | 12 |  | CC(C)c1noc2ccc3cnc(Nc4ccc(N5CCC(N(C)C)CC5)cn4)nc3c12 [Compound I-13, N-(5-(4-(dimethylamino)piperidin-1-yl)pyridin-2-yl)-9-isopropylisoxazolo [5,4-H]quinazolin-2-amine] |
| 4 | 10 |  | CC(C)c1noc2ccc3cnc(Nc4ccc(C5CCNCC5)cn4)nc3c12 [Compound I-14, 9-isopropyl-N-(5-(piperidin-4-yl)pyridin-2-yl)isoxazolo[5,4-H] quinazolin-2-amine] |
| 7 | 19 |  | CC(C)c1noc2ccc3cnc(Nc4ccc(N5CCNCC5)nn4)nc3c12 [Compound I-15, 9-isopropyl-N-(6-(piperazin-1-yl)pyridazin-3-yl)isoxazolo[5,4-H]quinazolin-2-amine] |
| 7 | 25 |  | CC(C)c1noc2ccc3cnc(Nc4ccc(N5CCNCC5=O)cn4)nc3c12 [Compound I-16, 1-(6-((9-isopropylisoxazolo[5,4-H]quinazolin-2-yl)amino)pyridin-3-yl)piperazin-2-one] |

| IC50 (CDK4/cyclin D3) [nM] | IC50 (CDK6/Cyclin D3) [nM] | IC50 (CDK2/Cyclin A2) [nM] | SMILES |
| --- | --- | --- | --- |
| 5 | 21 |  | CC(C)c1noc2ccc3cnc(Nc4ccc(N5CCS(=O)(=O)CC5)cn4)nc3c12 [Compound I-17, 4-(6-((9-isopropylisoxazolo[5,4-H]quinazolin-2-yl)amino)pyridin-3-yl)thiomorpholine 1,1-dioxide] |
| 6 | 32 |  | CC(C)Cc1noc2ccc3cnc(Nc4ccc(N5CCNCC5)cn4)nc3c12 [Compound I-18, 9-isobutyl-N-(5-(piperazin-1-yl)pyridin-2-yl)isoxazolo[5,4-H]quinazolin-2-amine] |
| 7 | 37 |  | CC(C)Cc1noc2ccc3cnc(Nc4ccc(N5CCN(C)CC5)cn4)nc3c12 [Compound I-19, 9-isobutyl-N-(5-(4-methylpiperazin-1-yl)pyridin-2-yl)isoxazolo[5,4-H] quinazolin-2-amine] |
| 7 | 39 |  | CCN1CCN(c2ccc(Nc3ncc4ccc5onc(CC(C)C)c5c4n3)nc2)CC1 [Compound I-20, N-(5-(4-ethylpiperazin-1-yl)pyridin-2-yl)-9-isobutylisoxazolo[5,4-H] quinazolin-2-amine] |
| 47 | 245 |  | CC(C)Cc1noc2ccc3cnc(Nc4ccc(N5CCOCC5)cn4)nc3c12 [Compound I-21, 9-isobutyl-N-(5-morpholinopyridin-2-yl)isoxazolo[5,4-H]quinazolin-2-amine] |
| 7 | 21 |  | c1cc(Nc2ncc3ccc4onc(C5CCCC5)c4c3n2)ncc1N1CCNCC1 [Compound I-22, 9-cyclopentyl-N-(5-(piperazin-1-yl)pyridin-2-yl)isoxazolo[5,4-H] quinazolin-2-amine] |
| 5 | 15 |  | CN1CCN(c2ccc(Nc3ncc4ccc5onc(C6CCCC6)c5c4n3)nc2)CC1 [Compound I-23, 9-cyclopentyl-N-(5-(4-methylpiperazin-1-yl)pyridin-2-yl)isoxazolo[5,4-H]quinazolin-2-amine] |
| 13 | 82 |  | CC(C)c1noc2c1-c1nc(Nc3ccc(N4CCNCC4)cn3)ncc1CC2 [Compound I-24, 9-isopropyl-N-(5-(piperazin-1-yl)pyridin-2-yl)-5,6-dihydroisoxazolo[5,4-h]quinazolin-2-amine hydrochloride] |
| 11 | 64 |  | CCN1CCN(c2ccc(Nc3ncc4c(n3)-c3c(C(C)C)noc3CC4)nc2)CC1 [Compound I-25, N-(5-(4-ethylpiperazin-1-yl)pyridin-2-yl)-9-isopropyl-5,6-dihydroisoxazolo [5,4-H]quinazolin-2-amine] |
| 63 | 276 |  | CC(C)c1noc2c1-c1nc(Nc3ccc(N4CCOCC4)cn3)ncc1CC2 [Compound I-26, 9-isopropyl-N-(5-morpholinopyridin-2-yl)-5,6-dihydroisoxazolo[5,4-H] quinazolin-2-amine] |
| 3 | 8 | 6 | CC(C)c1noc2ccc3cnc(Nc4ccc(N5CCNCC5)cc4)nc3c12 [Compound I-27, 9-isopropyl-N-(4-(piperazin-1-yl)phenyl)isoxazolo[5,4-H]quinazolin-2-amine] |
| 2 | 5 | 4 | CCN1CCN(c2ccc(Nc3ncc4ccc5onc(C(C)C)c5c4n3)cc2)CC1 [Compound I-28, N-(4-(4-ethylpiperazin-1-yl)phenyl)-9-isopropylisoxazolo[5,4-h] quinazolin-2-amine] |
| 14 | 36 | 10 | CC(C)c1noc2ccc3cnc(Nc4ccc(N5CCOCC5)cc4)nc3c12 [Compound I-29, 9-isopropyl-N-(4-morpholinophenyl) isoxazolo[5,4-H]quinazolin-2-amine] |
| 100 | 245 | 140 | CC(C)c1noc2ccc3cnc(Nc4ccc(N5CCC(CCCO)CC5)cc4)nc3c12 [Compound I-30, 3-(1-(4-((9-isopropylisoxazolo[5,4-h]quinazolin-2-yl)amino)phenyl)piperidin-4-yl)propan-1-ol] |
| 98 | 340 | 244 | COc1cc(N2CCN(C)CC2)ccc1Nc1ncc2ccc3onc(C(C)C)c3c2n1 [Compound I-31, 9-isopropyl-N-(2-methoxy-4-(4-methylpiperazin-l-yl)phenyl)isoxazolo [5,4-H]quinazolin-2-amine] |
